# How the values were obtained:
# [1] = system: TC-1 cells (cGAS-STING); test: CPT-induced IL-6 in TC-1 cells; conditions: TC-1, 0.5 μM CPT 48 hours; H151 1.8 μM, IDX 2.5 μM
# Description: FIG. 7: Mouse TC-1 cells were plated in the presence of 0.5 μM CPT for 48 hours, with the following compounds, where indicated: H151 (1.8 μM), IDX (2.5 μM). IL-6 levels were determined by ELISA. Data shown are averaged from 2 (for H151) or 3 independent experiments (conducted with biological replicate), ±standard deviation (SD). […] Each point represents the mean data for each independent experiment; the column represents the mean of the experiments. *, P≤0.05; **, P≤0.01; ***, P≤0.001; ****, P≤0.0001, ns: non-significant.
# Cell culture and reagents.
# Murine IP-10 production and IL-6 in supernatant of iBMMs and TC-1 was quantified using Mouse CXCL10/IP-10/CRG-2 Duo Set ELISA (R&D systems, #Dy466) and the IL6 OptE1A ELISA Kit mouse (BD Bioscience, #555240), respectively, according to the manufacturer's protocol. Similarly, human IP-10, TNF-α and IL-6 production was measured in cell supernatants using human IP-10 OptEIA ELISA kit (BD Biosciences, #555157), human OptEIA TNF-α kit (BD Bioscience, #555212) and human IL-6 OptEIA ELISA Set (BD Biosciences, #555220). Tetramethylbenzidine substrate (ThermoFisher Scientific) was used for quantification of the cytokines on a Fluostar OPTIMA (BMG LABTECH) plate-reader.
# [2] = system: TLR4 (LPS); test: LPS-induced IL-6 in hTERT immortalised foreskin fibroblasts; type: cell-based, human; conditions: 2.5 uM IDX or H151 pre-treatment, 7 h LPS (100 ng/ml)
# Description: (§1) IL-6 levels were measured in the supernatants by ELISA.
# (§2) To determine the specificity of IDX on STING signalling, human hTERT immortalised foreskin fibroblasts which have functional TLR4 (LPS) and TLR3 (PolyI:C) responsiveness were tested. […] (FIG. 6).
# [3] = system: TLR3 (PolyI:C); test: PolyI:C-induced IL-6 in hTERT immortalised foreskin fibroblasts; type: cell-based, human; conditions: 2.5 uM IDX or H151 pre-treatment, 7 h polyI:C (20 ug/ml)
# Description: as §1, §2
# [4] = system: human STING (PBMCs); test: STING agonist-induced IL-6 and TNFα in human PBMCs; conditions: PBMCs from two donors, 2.5 μM IDX pre-treatment, GSK STING agonist 100 nM 6 hours
# Description: The supernatants were collected and analysed for IL-6 and TNFα production by ELISA. Data shown are as average from 2 independent donors (conducted with biological replicate for each donor), ±SEM.
# Similarly, human IP-10, TNF-α and IL-6 production was measured in cell supernatants using human IP-10 OptEIA ELISA kit (BD Biosciences, #555157), human OptEIA TNF-α kit (BD Bioscience, #555212) and human IL-6 OptEIA ELISA Set (BD Biosciences, #555220). Tetramethylbenzidine substrate (ThermoFisher Scientific) was used for quantification of the cytokines on a Fluostar OPTIMA (BMG LABTECH) plate-reader.
# [5] = Fresh versus frozen DMSO stock comparison; type: physicochemical; conditions: 40 mM stock in DMSO kept frozen at −20C
# [6] = system: influenza A virus (IAV) driven lung inflammation; test: Influenza A virus infection in lung TGF-β1 transgenic mice; type: in vivo, mouse; conditions: 5 mg/kg daily from day 1 after IAV infection until day 3
# [7] = target: T1, human STING (Homo sapiens, UniProt Q86WV6, G230A/H232R/R293Q/R71H); test: STING agonist-driven IP-10 and IFNβ in THP-1 cells; type: cell-based; conditions: THP-1, 2.5 uM IDX 1 hour
# T1 construct: endogenous in cells; host or cells: human THP-1 cells
# T1 sequence (Q86WV6 whole entry R71H/G230A/H232R/R293Q): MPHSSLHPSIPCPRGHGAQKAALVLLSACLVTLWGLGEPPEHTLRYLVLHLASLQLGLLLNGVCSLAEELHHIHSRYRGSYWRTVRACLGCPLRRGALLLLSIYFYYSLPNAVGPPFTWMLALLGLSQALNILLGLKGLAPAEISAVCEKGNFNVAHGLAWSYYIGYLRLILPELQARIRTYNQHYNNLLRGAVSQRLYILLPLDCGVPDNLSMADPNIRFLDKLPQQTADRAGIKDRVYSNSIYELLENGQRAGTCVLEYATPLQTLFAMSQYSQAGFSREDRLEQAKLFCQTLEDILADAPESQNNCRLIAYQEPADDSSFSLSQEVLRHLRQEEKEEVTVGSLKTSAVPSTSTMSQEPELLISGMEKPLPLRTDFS
# [8] = target: T2, mouse STING (Mus musculus, UniProt Q3TBT3); test: DMXAA-induced ISRE-luciferase in L929 cells; conditions: 2.5 uM IDX; DMXAA up to 100 ug/ml
# T2 sequence (Q3TBT3 1-378): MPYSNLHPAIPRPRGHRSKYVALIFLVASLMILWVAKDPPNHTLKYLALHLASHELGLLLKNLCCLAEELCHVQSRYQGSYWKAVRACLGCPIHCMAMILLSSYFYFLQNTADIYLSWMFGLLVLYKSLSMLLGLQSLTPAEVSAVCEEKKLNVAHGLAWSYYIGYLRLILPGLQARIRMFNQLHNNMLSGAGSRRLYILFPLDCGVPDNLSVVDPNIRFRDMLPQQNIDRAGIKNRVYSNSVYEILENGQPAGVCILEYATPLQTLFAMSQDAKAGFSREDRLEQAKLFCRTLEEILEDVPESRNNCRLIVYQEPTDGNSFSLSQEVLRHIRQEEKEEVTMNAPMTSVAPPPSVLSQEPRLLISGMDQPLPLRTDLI
# Description: FIG. 2: Mouse L929 cells stably expressing an IFN-stimulated responsive element (ISRE)-luciferase reporter were pre-treated for 1 h with indicated doses of IDX, prior an 8 h stimulation with 20 ug/ml DMXAA. Cells were lysed and firefly luciferase was quantified at the end of the experiment. Data shown are averaged from 2 independent experiments in biological triplicate, relative to DMXAA and DMSO only condition control (±SEM).
# Luciferase assays were carried out at 8 hours. Data were normalised to DMSO+DMXAA only condition, and are shown as averages from 3 independent experiments (conducted with biological replicate), ±SD. Each point represents the mean data for each independent experiment; the column represents the mean of the experiments.
# To determine whether IDX could inhibit STING signalling more directly, mouse L929 cells stably expressing an IFN-stimulated-responsive luciferase (ISRE-Luc) were pretreated with IDX at various doses for 1 h, prior to DMXAA stimulation for 8 h (FIG. 2).
# Using mouse L929 cells stably expressing an interferon (IFN)-stimulated responsive element (ISRE)-Luciferase construct referred to as LL171 cells (2) and stimulated with the murine STING agonist DMXAA, the inventors speculated that the DMXAA-induced IFN-β production and downstream ISRE-Luciferase expression would only be minimally impacted by IDX if it selectively acted on NF-κB signalling.
# [9] = system: STING signalling (STING, TBK1, IRF3, p-65); test: Western blotting of DMXAA-stimulated immortalised mouse bone marrow derived macrophages; type: cell-based; conditions: 2.5 uM IDX 1 h
# Description: FIG. 11: Immortalised mouse bone marrow derived macrophages were pre-treated for 1 hour with 2.5 uM IDX prior to stimulation for an indicated amount of time with DMXAA (50 ug/mL), and then lysed and analysed by Western blotting using specific total or phospho-antibody. The results on STING and p-STING are representative of 3 independent experiments.
# Western Blotting: Following lysis in RIPA buffer supplemented with complete mini protease inhibitor cocktail (Sigma #4693124001) and phosSTOP inhibitor (Sigma #4906845001), the samples were subjected to SDS-Page analyses, on NuPAGE 4%-12% Bis-Tris Protein Gels (Thermo Scientific) with MES or MOPS running buffer (Thermo Scientific), as previously reported (4). Anti-Sting (#13647), Phospho-Sting (#72971), TBK1 (#3013), phospho-TBK1 (#5483), IKKe (#3416), phospho-IKKe (#8766), IRF-3 (#4302), phosphor-IRF3 (#4947), p-65 (#4764), phospho-p-65 (#3033) antibodies were all from Cell Signalling. Anti-beta-Actin antibodies (#Ab49900) were from Abcam.
# To further determine the direct activity of IDX on STING, immortalised mouse bone marrow derived macrophages were stimulated with DMXAA for 1, 2 or 3 hours in the presence of IDX (FIG. 11). The cell lysates were analysed by Western blotting using specific total or phospho-antibody against STING, TBK1, IRF3, and p-65 (FIG. 11). In support of its inhibitory activity on downstream STING signaling, IDX decreased phosphorylation of TBK1 and IRF3 and also STING itself. […] While these effects could all be dependent on TBK1 inhibition by IDX, the inventors also observed decreased p-65 phosphorylation that was not dependent on TBK1 in this cell system (4).
# [10] = system: basal STING signalling in Trex1-mutant mice; type: in vivo, mouse; conditions: 2 mg/kg i.p. daily for 10 days
# [11] = system: cGAS/STING (mouse STING-mCherry), IFN-β-luciferase reporter; test: IFN-β-luciferase reporter in HEK-Sting cells overexpressing cGAS-GFP; conditions: different doses overnight
# Description: FIG. 1: Human HEK cells constitutively expressing mouse STING-mCherry were co-transfected with cGAS-GFP and an interferon (IFN)beta-luciferase (A) or an NF-κB-Luc reporter (B) reporter for 3 h prior to being treated overnight with indicated concentration of IDX (in equal volume of DMSO). Firefly luciferase was quantified the next day. Data shown are averaged from 2 (B) or 3 (A) independent experiments in biological triplicate, relative to DMSO only condition control (±SEM).
# Cell culture and reagents.
# Cell transfections: HEK Sting cells were reverse transfected with 200 ng of IFNb-Luciferase reporter and 400 ng of cGAS-GFP overexpression vector, using 1.8 ul lipofectamine 2000 and ˜600,000 cells, per well of a 96 well plate (as previously reported (8)). After 3 h, the cells were collected and aliquoted in 12 wells of a 96 well plate (for each well of a 6 well plate), and treated with indicated doses of IDX overnight, prior lysis in 40 ul of Glo lysis buffer the next day (Promega). Luciferase assays were carried out using the Promega Luciferase Assay System on a on a Fluostar OPTIMA (BMG LABTECH) plate-reader.
# [12] = system: human hTERT fibroblasts; test: Cell proliferation of hTERT fibroblasts; type: cell-based; conditions: 10 μM IDX, 72 hours
# [13] = system: basal Sting signalling; test: Interferon stimulated genes in primary BMDMs from Trex1-mutant mice (RT-qPCR); conditions: overnight 1.25 and 2.5 μM IDX
smiles,measurement,setting,value
CC(=O)Oc1ccccc1C(=O)O [aspirin],CPT-induced IL-6 production,[1],strongly reduced
"CCc1ccc(NC(=O)Nc2c[nH]c3ccccc23)cc1 [H151, reference compound]",CPT-induced IL-6 production,[1],strongly reduced
same,"IL-6 production, LPS stimulation",[2],only modestly reduced
same,"IL-6 production, PolyI:C stimulation",[3],only modestly reduced
"Oc1ccc(C2=Cc3ccc(O)cc3OC2)cc1 [IDX, 2H-1-Benzopyran-7-0,1,3-(4-hydroxyphenyl)]",IL-6 production,[4],reduced
same,TNFα production,[4],reduced
same,activity of fresh versus frozen IDX stock,[5],did not show any difference of activity
same,IL-6 in bronchial alveolar lavages,[6],significantly reduce
same,CPT-induced IL-6 production,[1],significantly reduced
same,IP-10 production driven by ADU-S100,[7]; ADU-S100 30 uM 6 hours,strongly inhibited
same,IP-10 production driven by synthetic STING agonist (GSK),[7]; GSK agonist 100 nM 6 hours,strongly inhibited
same,reduction of IFNβ production,"[7]; synthetic STING agonist (GSK) 100 nM 6 hours, IFNβ ELISA",~50%
same,effect of increasing DMXAA on inhibition of ISRE-Luc,[8],did not reverse the inhibition
same,p-65 phosphorylation,"[9]; DMXAA 50 ug/mL 1, 2 or 3 hours",decreased
same,phosphorylation of IRF3,"[9]; DMXAA 50 ug/mL 1, 2 or 3 hours",decreased
same,phosphorylation of STING,"[9]; DMXAA 50 ug/mL 1, 2 or 3 hours",decreased
same,phosphorylation of TBK1,"[9]; DMXAA 50 ug/mL 1, 2 or 3 hours",decreased
same,shift in size of total STING (STING activation),"[9]; DMXAA 50 ug/mL, 3-hour period",attenuated
same,"IL-6 production, LPS stimulation",[2],only modestly reduced
same,"IL-6 production, PolyI:C stimulation",[3],only modestly reduced
same,Ifi44 expression in the spleen,[10],decreased
same,Ifih1 expression in the spleen,[10],decreased
same,Isg15 expression in the spleen,[10],significant decreased
same,Rsad2 expression in the spleen,[10],decreased
same,serum TNFα levels,[10]; compared to PBS controls,decrease
same,inhibition of IFN-β-luciferase,[11],potent inhibitor
same,impact on cell proliferation,[12],little impact
same,Ifih1 expression,[13],dose-dependent inhibition
same,Ifit1 expression,[13],dose-dependent inhibition
same,Rsad2 expression,[13],dose-dependent inhibition
